Results taken from the supplement of paper PMC10307832.

What was measured:
Experiment in all cases: relative viability (nuclei count vs DMSO), 5 days (fraction); higher = more cells survive
[1] = tested on: NCI-H2009
Method in brief: (§1)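 Values are medians from duplicate plates. Each reflects relative viability, defined as the nuclei count of treated wells over that of vehicle wells. Lung cancer cell lines in 1536-well plates were pin-tool dosed one day after seeding with one drug alone or with a fixed anchor-drug dose plus five library-drug doses (not always all listed) in √10 steps, then fixed, stained and imaged at 4× after 5 days.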

[2] = tested on: NCI-H1975
Method in brief: as §1

[3] = tested on: LCLC-103H
Method in brief: as §1

[4] = tested on: NCI-H460
Method in brief: as §1

[5] = tested on: CAL-12T
Method in brief: as §1

[6] = tested on: NCI-H1755
Method in brief: as §1

[7] = tested on: EMC-BAC-2
Method in brief: as §1

[8] = tested on: HCC-827
Method in brief: as §1

[9] = tested on: NCI-H1915
Method in brief: as §1

[10] = tested on: COR-L 105
Method in brief: as §1

[11] = tested on: NCI-H1792
Method in brief: as §1

[12] = tested on: SW 1573
Method in brief: as §1

[13] = tested on: NCI-H2228
Method in brief: as §1

[14] = tested on: NCI-H1355
Method in brief: as §1

[15] = tested on: NCI-H727
Method in brief: as §1

[16] = tested on: NCI-H1395
Method in brief: as §1

[17] = tested on: SK-LU-1
Method in brief: as §1

[18] = tested on: HARA
Method in brief: as §1

[19] = tested on: NCI-H23
Method in brief: as §1

[20] = tested on: HOP-62
Method in brief: as §1

[21] = tested on: NCI-H1437
Method in brief: as §1

[22] = tested on: A-427
Method in brief: as §1

CC1(C)CCC(c2ccc(Cl)cc2)=C(CN2CCN(c3ccc(C(=O)NS(=O)(=O)c4ccc(N[C@H](CCN5CCOCC5)CSc5ccccc5)c(S(=O)(=O)C(F)(F)F)c4)cc3)CC2)C1 [Navitoclax] + CCNC(=O)c1noc(-c2cc(C(C)C)c(O)cc2O)c1-c1ccc(CN2CCOCC2)cc1 [Luminespib] (partner 0.01 µM)
relative viability ([1]; first compound 0.005 µM): 1.04 | relative viability ([1]; first compound 0.01581 µM): 1.1 | relative viability ([1]; first compound 0.05 µM): 1.02 | relative viability ([1]; first compound 0.1581 µM): 1.07 | relative viability ([1]; first compound 0.5 µM): 1.04 | relative viability ([2]; first compound 0.005 µM): 0.24 | relative viability ([2]; first compound 0.01581 µM): 0.309 | relative viability ([2]; first compound 0.05 µM): 0.191 | relative viability ([2]; first compound 0.1581 µM): 0.118 | relative viability ([2]; first compound 0.5 µM): 0.132 | relative viability ([3]; first compound 0.005 µM): 1.04 | relative viability ([3]; first compound 0.01581 µM): 1.03 | relative viability ([3]; first compound 0.05 µM): 1.08 | relative viability ([3]; first compound 0.1581 µM): 1.02 | relative viability ([3]; first compound 0.5 µM): 0.884 | relative viability ([4]; first compound 0.005 µM): 0.0372 | relative viability ([4]; first compound 0.01581 µM): 0.0368 | relative viability ([4]; first compound 0.05 µM): 0.0365 | relative viability ([4]; first compound 0.1581 µM): 0.0311 | relative viability ([4]; first compound 0.5 µM): 0.033 | relative viability ([5]; first compound 0.005 µM): 0.308 | relative viability ([5]; first compound 0.01581 µM): 0.563 | relative viability ([5]; first compound 0.05 µM): 0.708 | relative viability ([5]; first compound 0.1581 µM): 0.826 | relative viability ([5]; first compound 0.5 µM): 0.251 | relative viability ([6]; first compound 0.005 µM): 0.381 | relative viability ([6]; first compound 0.01581 µM): 0.393 | relative viability ([6]; first compound 0.05 µM): 0.332 | relative viability ([6]; first compound 0.1581 µM): 0.173 | relative viability ([6]; first compound 0.5 µM): 0.426 | relative viability ([7]; first compound 0.005 µM): 1.09 | relative viability ([7]; first compound 0.01581 µM): 1.24 | relative viability ([7]; first compound 0.05 µM): 1.08 | relative viability ([7]; first compound 0.1581 µM): 1.13 | relative viability ([7]; first compound 0.5 µM): 1.12 | relative viability ([8]; first compound 0.005 µM): 0.681 | relative viability ([8]; first compound 0.01581 µM): 0.699 | relative viability ([8]; first compound 0.05 µM): 0.49 | relative viability ([8]; first compound 0.1581 µM): 0.58 | relative viability ([8]; first compound 0.5 µM): 0.69 | relative viability ([9]; first compound 0.005 µM): 0.749 | relative viability ([9]; first compound 0.01581 µM): 0.778 | relative viability ([9]; first compound 0.05 µM): 0.793 | relative viability ([9]; first compound 0.1581 µM): 0.746 | relative viability ([9]; first compound 0.5 µM): 0.829 | relative viability ([10]; first compound 0.005 µM): 0.801 | relative viability ([10]; first compound 0.01581 µM): 1.2 | relative viability ([10]; first compound 0.05 µM): 0.974 | relative viability ([10]; first compound 0.1581 µM): 0.701 | relative viability ([10]; first compound 0.5 µM): 0.544 | relative viability ([11]; first compound 0.005 µM): 0.456 | relative viability ([11]; first compound 0.01581 µM): 0.685 | relative viability ([11]; first compound 0.05 µM): 0.351 | relative viability ([11]; first compound 0.5 µM): 0.527 | relative viability ([12]; first compound 0.005 µM): 0.145 | relative viability ([12]; first compound 0.01581 µM): 0.213 | relative viability ([12]; first compound 0.05 µM): 0.429 | relative viability ([12]; first compound 0.1581 µM): 0.212 | relative viability ([12]; first compound 0.5 µM): 0.206 | relative viability ([13]; first compound 0.005 µM): 0.148 | relative viability ([13]; first compound 0.01581 µM): 0.148 | relative viability ([13]; first compound 0.1581 µM): 0.146 | relative viability ([13]; first compound 0.5 µM): 0.142 | relative viability ([14]; first compound 0.005 µM): 0.725 | relative viability ([14]; first compound 0.01581 µM): 0.845 | relative viability ([14]; first compound 0.05 µM): 0.674 | relative viability ([14]; first compound 0.1581 µM): 0.668 | relative viability ([14]; first compound 0.5 µM): 0.742 | relative viability ([15]; first compound 0.01581 µM): 0.347 | relative viability ([15]; first compound 0.1581 µM): 0.275 | relative viability ([15]; first compound 0.5 µM): 0.28 | relative viability ([16]; first compound 0.005 µM): 0.741 | relative viability ([16]; first compound 0.01581 µM): 0.836 | relative viability ([16]; first compound 0.05 µM): 0.714 | relative viability ([16]; first compound 0.1581 µM): 0.577 | relative viability ([16]; first compound 0.5 µM): 0.793 | relative viability ([17]; first compound 0.005 µM): 0.205 | relative viability ([17]; first compound 0.01581 µM): 0.179 | relative viability ([17]; first compound 0.05 µM): 0.199 | relative viability ([17]; first compound 0.1581 µM): 0.199 | relative viability ([17]; first compound 0.5 µM): 0.201 | relative viability ([18]; first compound 0.005 µM): 0.941 | relative viability ([18]; first compound 0.01581 µM): 0.678 | relative viability ([18]; first compound 0.1581 µM): 0.562 | relative viability ([18]; first compound 0.5 µM): 0.682 | relative viability ([19]; first compound 0.005 µM): 0.223 | relative viability ([19]; first compound 0.01581 µM): 0.218 | relative viability ([19]; first compound 0.05 µM): 0.224 | relative viability ([19]; first compound 0.1581 µM): 0.213 | relative viability ([19]; first compound 0.5 µM): 0.209 | relative viability ([20]; first compound 0.005 µM): 0.913 | relative viability ([20]; first compound 0.01581 µM): 0.937 | relative viability ([20]; first compound 0.05 µM): 0.895 | relative viability ([20]; first compound 0.1581 µM): 0.894 | relative viability ([20]; first compound 0.5 µM): 0.993 | relative viability ([21]; first compound 0.005 µM): 1.12 | relative viability ([21]; first compound 0.01581 µM): 1.1 | relative viability ([21]; first compound 0.05 µM): 1.09 | relative viability ([21]; first compound 0.1581 µM): 1.14 | relative viability ([21]; first compound 0.5 µM): 1.01 | relative viability ([22]; first compound 0.005 µM): 0.902 | relative viability ([22]; first compound 0.01581 µM): 0.833 | relative viability ([22]; first compound 0.05 µM): 0.804 | relative viability ([22]; first compound 0.1581 µM): 0.908 | relative viability ([22]; first compound 0.5 µM): 0.948
